From PubChem BioAssay AID1745844 (Carcinogenic Potency Database (CPDB), 2022)
Values joined by “and” are separate entries in the source; they are usually repeats but may differ in a detail not shown here. Equal values may be shown once.

Tested on: rodent lifetime carcinogenesis bioassay, tumor incidence TD50
Assay: carcinogenic potency in animals, long-term in vivo studies, CPDB compilation (AID 1745844)

SMILES: C=CC(=C)C
- TD50 (mouse, strain B6C3F1, females, inhaled, site: Harderian gland, lesion: adenoma, dosed 80 weeks, study length 105 weeks): 319 mg/kg/day
- TD50 (mouse, strain B6C3F1, females, inhaled, site: pituitary gland, lesion: pars distalis adenoma, dosed 80 weeks, study length 105 weeks): 247 mg/kg/day
- TD50 (mouse, strain B6C3F1, females, inhaled, site: spleen, lesion: hemangiosarcoma, dosed 80 weeks, study length 105 weeks): 682 mg/kg/day
- TD50 (mouse, strain B6C3F1, males, inhaled, site: Harderian gland, lesion: adenoma + carcinoma, dosed 26 weeks, study length 53 weeks): 96.8 mg/kg/day
- TD50 (mouse, strain B6C3F1, males, inhaled, site: Harderian gland, lesion: adenoma, dosed 26 weeks, study length 53 weeks): 96.8 mg/kg/day
- TD50 (mouse, strain B6C3F1, males, inhaled, site: Harderian gland, lesion: adenoma, dosed 40 weeks, study length 105 weeks): 739 mg/kg/day
- TD50 (mouse, strain B6C3F1, males, inhaled, site: Harderian gland, lesion: adenoma, dosed 80 weeks, study length 96 weeks): 711 mg/kg/day
- TD50 (mouse, strain B6C3F1, males, inhaled, site: Harderian gland, lesion: adenoma, dosed 80 weeks, study length 105 weeks): 881 mg/kg/day
- TD50 (mouse, strain B6C3F1, males, inhaled, site: Harderian gland, lesion: carcinoma, dosed 26 weeks, study length 53 weeks): 14700 mg/kg/day
- TD50 (mouse, strain B6C3F1, males, inhaled, site: Harderian gland, lesion: carcinoma, dosed 80 weeks, study length 96 weeks): 12800 mg/kg/day
- TD50 (mouse, strain B6C3F1, males, inhaled, site: Harderian gland, lesion: carcinoma, dosed 80 weeks, study length 105 weeks): 15000 mg/kg/day
- TD50 (mouse, strain B6C3F1, males, inhaled, site: any site (literature study), lesion: several types, types named in the paper, dosed 26 weeks, study length 53 weeks): 348 mg/kg/day
- TD50 (mouse, strain B6C3F1, males, inhaled, site: forestomach + Harderian gland + liver + lung, lesion: squamous-cell carcinoma + squamous-cell papilloma + adenoma + carcinoma + hepatocellular adenoma + hepatocellular carcinoma + alveol, dosed 26 weeks, study length 53 weeks): 355 mg/kg/day
- TD50 (mouse, strain B6C3F1, males, inhaled, site: forestomach, lesion: squamous-cell carcinoma + squamous-cell papilloma, dosed 26 weeks, study length 53 weeks): 1310 mg/kg/day
- TD50 (mouse, strain B6C3F1, males, inhaled, site: forestomach, lesion: squamous-cell carcinoma, dosed 26 weeks, study length 53 weeks): 4850 mg/kg/day
- TD50 (mouse, strain B6C3F1, males, inhaled, site: forestomach, lesion: squamous-cell carcinoma, dosed 80 weeks, study length 96 weeks): 25800 mg/kg/day
- TD50 (mouse, strain B6C3F1, males, inhaled, site: forestomach, lesion: squamous-cell carcinoma, dosed 80 weeks, study length 105 weeks): 22200 mg/kg/day
- TD50 (mouse, strain B6C3F1, males, inhaled, site: forestomach, lesion: squamous-cell papilloma, dosed 26 weeks, study length 53 weeks): 1860 mg/kg/day
- TD50 (mouse, strain B6C3F1, males, inhaled, site: forestomach, lesion: squamous-cell papilloma, dosed 40 weeks, study length 105 weeks): 15600 mg/kg/day
- TD50 (mouse, strain B6C3F1, males, inhaled, site: forestomach, lesion: squamous-cell papilloma, dosed 80 weeks, study length 96 weeks): 25800 mg/kg/day
- TD50 (mouse, strain B6C3F1, males, inhaled, site: forestomach, lesion: squamous-cell papilloma, dosed 80 weeks, study length 105 weeks): 45000 mg/kg/day
- TD50 (mouse, strain B6C3F1, males, inhaled, site: heart, lesion: hemangiosarcoma, dosed 40 weeks, study length 105 weeks): 32900 mg/kg/day
- TD50 (mouse, strain B6C3F1, males, inhaled, site: heart, lesion: hemangiosarcoma, dosed 80 weeks, study length 96 weeks): 25800 mg/kg/day
- TD50 (mouse, strain B6C3F1, males, inhaled, site: heart, lesion: hemangiosarcoma, dosed 80 weeks, study length 105 weeks): 39000 mg/kg/day
- TD50 (mouse, strain B6C3F1, males, inhaled, site: liver, lesion: hepatocellular adenoma + hepatoblastoma + hepatocellular carcinoma, dosed 26 weeks, study length 53 weeks): 183 mg/kg/day
- TD50 (mouse, strain B6C3F1, males, inhaled, site: liver, lesion: hepatocellular adenoma + hepatocellular carcinoma, dosed 26 weeks, study length 53 weeks): 183 mg/kg/day
- TD50 (mouse, strain B6C3F1, males, inhaled, site: liver, lesion: hepatocellular adenoma, dosed 26 weeks, study length 53 weeks): 150 mg/kg/day
- TD50 (mouse, strain B6C3F1, males, inhaled, site: liver, lesion: hepatocellular adenoma, dosed 40 weeks, study length 105 weeks): 1070 mg/kg/day
- TD50 (mouse, strain B6C3F1, males, inhaled, site: liver, lesion: hepatocellular adenoma, dosed 80 weeks, study length 96 weeks): 1760 mg/kg/day
- TD50 (mouse, strain B6C3F1, males, inhaled, site: liver, lesion: hepatocellular adenoma, dosed 80 weeks, study length 105 weeks): 1570 mg/kg/day
- TD50 (mouse, strain B6C3F1, males, inhaled, site: liver, lesion: hepatocellular carcinoma, dosed 26 weeks, study length 53 weeks): 1270 mg/kg/day
- TD50 (mouse, strain B6C3F1, males, inhaled, site: liver, lesion: hepatocellular carcinoma, dosed 40 weeks, study length 105 weeks): 2330 mg/kg/day
- TD50 (mouse, strain B6C3F1, males, inhaled, site: liver, lesion: hepatocellular carcinoma, dosed 80 weeks, study length 96 weeks): 3290 mg/kg/day
- TD50 (mouse, strain B6C3F1, males, inhaled, site: liver, lesion: hepatocellular carcinoma, dosed 80 weeks, study length 105 weeks): 4850 mg/kg/day
- TD50 (mouse, strain B6C3F1, males, inhaled, site: lung, lesion: alveolar/bronchiolar adenoma + alveolar/bronchiolar carcinoma, dosed 26 weeks, study length 53 weeks): 752 mg/kg/day
- TD50 (mouse, strain B6C3F1, males, inhaled, site: lung, lesion: alveolar/bronchiolar adenoma, dosed 26 weeks, study length 53 weeks): 836 mg/kg/day
- TD50 (mouse, strain B6C3F1, males, inhaled, site: lung, lesion: alveolar/bronchiolar adenoma, dosed 40 weeks, study length 105 weeks): 908 mg/kg/day
- TD50 (mouse, strain B6C3F1, males, inhaled, site: lung, lesion: alveolar/bronchiolar adenoma, dosed 80 weeks, study length 96 weeks): 4810 mg/kg/day
- TD50 (mouse, strain B6C3F1, males, inhaled, site: lung, lesion: alveolar/bronchiolar adenoma, dosed 80 weeks, study length 105 weeks): 1660 mg/kg/day
- TD50 (mouse, strain B6C3F1, males, inhaled, site: lung, lesion: alveolar/bronchiolar carcinoma, dosed 26 weeks, study length 53 weeks): 2790 mg/kg/day
- TD50 (mouse, strain B6C3F1, males, inhaled, site: lung, lesion: alveolar/bronchiolar carcinoma, dosed 40 weeks, study length 105 weeks): 9230 mg/kg/day
- TD50 (mouse, strain B6C3F1, males, inhaled, site: lung, lesion: alveolar/bronchiolar carcinoma, dosed 80 weeks, study length 96 weeks): 8410 mg/kg/day
- TD50 (mouse, strain B6C3F1, males, inhaled, site: lung, lesion: alveolar/bronchiolar carcinoma, dosed 80 weeks, study length 105 weeks): 6680 mg/kg/day
- TD50 (mouse, strain B6C3F1, males, inhaled, site: lymphoreticular system, lesion: histiocytic sarcoma, dosed 40 weeks, study length 105 weeks): 4430 mg/kg/day
- TD50 (mouse, strain B6C3F1, males, inhaled, site: lymphoreticular system, lesion: histiocytic sarcoma, dosed 80 weeks, study length 96 weeks): 3450 mg/kg/day
- TD50 (mouse, strain B6C3F1, males, inhaled, site: lymphoreticular system, lesion: histiocytic sarcoma, dosed 80 weeks, study length 105 weeks): 150000 mg/kg/day
- TD50 (mouse, strain B6C3F1, males, inhaled, site: spleen, lesion: hemangiosarcoma, dosed 80 weeks, study length 96 weeks): 25800 mg/kg/day
- TD50 (rat, strain Fischer 344, females, inhaled, site: any site (literature study), lesion: several types, types named in the paper, dosed 105 weeks, study length 105 weeks): 6940 mg/kg/day
- TD50 (rat, strain Fischer 344, females, inhaled, site: brain, meninges, lesion: granular-cell tumor, benign, dosed 105 weeks, study length 105 weeks): 40600 mg/kg/day
- TD50 (rat, strain Fischer 344, females, inhaled, site: brain, meninges, lesion: sarcoma, dosed 105 weeks, study length 105 weeks): 50800 mg/kg/day
- carcinogen call (rat, strain Fischer 344, females, inhaled, site: brain, lesion: astrocytoma, benign, dosed 105 weeks, study length 105 weeks): e
- TD50 (rat, strain Fischer 344, females, inhaled, site: brain, lesion: malignant glioma, dosed 105 weeks, study length 105 weeks): 30800 mg/kg/day
- TD50 (rat, strain Fischer 344, females, inhaled, site: brain, lesion: medulloblastoma, malignant, dosed 105 weeks, study length 105 weeks): 52800 mg/kg/day
- TD50 (rat, strain Fischer 344, females, inhaled, site: liver, lesion: hepatocellular adenoma + hepatoblastoma + hepatocellular carcinoma, dosed 105 weeks, study length 105 weeks): 25300 mg/kg/day
- TD50 (rat, strain Fischer 344, females, inhaled, site: mammary gland, lesion: fibroadenoma + fibroadenoma, multiple, dosed 105 weeks, study length 105 weeks): 3340 mg/kg/day
- TD50 (rat, strain Fischer 344, females, inhaled, site: mammary gland, lesion: fibroadenoma, multiple, dosed 105 weeks, study length 105 weeks): 206 mg/kg/day
- TD50 (rat, strain Fischer 344, males, inhaled, site: kidney + mammary gland + testis, lesion: tubule adenoma + carcinoma + fibroadenoma + fibroadenoma, multiple + interstitial-cell adenoma, bilateral + interstitial-cell aden, dosed 104 weeks, study length 104 weeks): 988 mg/kg/day
- TD50 (rat, strain Fischer 344, males, inhaled, site: kidney, lesion: tubule adenoma + tubule carcinoma, dosed 104 weeks, study length 104 weeks): 3150 mg/kg/day and 2290 mg/kg/day
- TD50 (rat, strain Fischer 344, males, inhaled, site: kidney, lesion: tubule adenoma, dosed 104 weeks, study length 104 weeks): 3150 mg/kg/day and 2290 mg/kg/day
- TD50 (rat, strain Fischer 344, males, inhaled, site: mammary gland, lesion: carcinoma + fibroadenoma, dosed 104 weeks, study length 104 weeks): 670 mg/kg/day
- TD50 (rat, strain Fischer 344, males, inhaled, site: mammary gland, lesion: carcinoma, dosed 104 weeks, study length 104 weeks): 7880 mg/kg/day
- TD50 (rat, strain Fischer 344, males, inhaled, site: mammary gland, lesion: fibroadenoma + fibroadenoma, multiple, dosed 104 weeks, study length 104 weeks): 655 mg/kg/day
- TD50 (rat, strain Fischer 344, males, inhaled, site: mammary gland, lesion: fibroadenoma, multiple, dosed 104 weeks, study length 104 weeks): 2220 mg/kg/day
- TD50 (rat, strain Fischer 344, males, inhaled, site: mammary gland, lesion: fibroadenoma, dosed 104 weeks, study length 104 weeks): 655 mg/kg/day
- TD50 (rat, strain Fischer 344, males, inhaled, site: testis, lesion: interstitial-cell adenoma, bilateral + interstitial-cell adenoma, dosed 104 weeks, study length 104 weeks): 914 mg/kg/day
- TD50 (rat, strain Fischer 344, males, inhaled, site: testis, lesion: interstitial-cell adenoma, dosed 26 weeks, study length 52 weeks): 316 mg/kg/day

SMILES: Nc1ccc2cc3ccc(N)cc3nc2c1
- TD50 (mouse, strain B6C3F1, females, in feed, site: any site (literature study), lesion: several types, types named in the paper, dosed 103 weeks, study length 103 weeks): 86.2 mg/kg/day
- TD50 (mouse, strain B6C3F1, females, in feed, site: liver, lesion: hepatocellular adenoma + hepatocellular carcinoma + neoplastic nodule, dosed 103 weeks, study length 103 weeks): 26.4 mg/kg/day
- TD50 (mouse, strain B6C3F1, females, in feed, site: liver, lesion: hepatocellular adenoma + hepatocellular carcinoma, dosed 103 weeks, study length 103 weeks): 26.4 mg/kg/day
- TD50 (mouse, strain B6C3F1, females, in feed, site: lung, lesion: alveolar/bronchiolar adenoma + alveolar/bronchiolar carcinoma, dosed 103 weeks, study length 103 weeks): 487 mg/kg/day
- TD50 (mouse, strain B6C3F1, males, in feed, site: liver, lesion: hepatocellular adenoma + hepatocellular carcinoma + neoplastic nodule, dosed 103 weeks, study length 103 weeks): 248 mg/kg/day
- TD50 (rat, strain Fischer 344, males, in feed, site: large intestine + small intestine, lesion: sarcoma, NOS + adenocarcinoma, NOS + leiomyosarcoma, dosed 109 weeks, study length 109 weeks): 213 mg/kg/day
- TD50 (rat, strain Fischer 344, males, in feed, site: liver, lesion: hepatocellular adenoma + hepatocellular carcinoma + neoplastic nodule, dosed 109 weeks, study length 109 weeks): 254 mg/kg/day
- TD50 (rat, strain Fischer 344, males, in feed, site: liver, lesion: hepatocellular carcinoma + neoplastic nodule, dosed 109 weeks, study length 109 weeks): 254 mg/kg/day

SMILES: CC(C)CN(N=O)C(N)=O
- TD50 (rat, strain Donryu, females, in drinking water, site: any site (literature study), lesion: several types, types named in the paper, dosed 76 weeks, study length 76 weeks): 4.7 mg/kg/day
- TD50 (rat, strain Donryu, females, in drinking water, site: digestive tract, lesion: several types, types named in the paper, dosed 76 weeks, study length 76 weeks): 4.73 mg/kg/day
- TD50 (rat, strain Donryu, females, in drinking water, site: duodenum, lesion: several types, types named in the paper, dosed 76 weeks, study length 76 weeks): 7.22 mg/kg/day
- TD50 (rat, strain Donryu, females, in drinking water, site: liver, lesion: several types, types named in the paper, dosed 76 weeks, study length 76 weeks): 1220 mg/kg/day
- TD50 (rat, strain Donryu, females, in drinking water, site: stomach, glandular, lesion: several types, types named in the paper, dosed 76 weeks, study length 76 weeks): 23.1 mg/kg/day
